Assays:
[1] = system: Alzheimer's disease and related dementia (ADRD) in rheumatoid arthritis patients; assay: Medicare claims cohort study of incident ADRD, HCQ vs methotrexate; type: in vivo, human
From the text: The full study protocol for patient-level analysis in Medicare claims was pre-registered on clinicaltrials.gov prior to data analysis (NCT04691505) and contains detailed information on implementation including all codes that were used to identify study variables to allow future replication. The following sections summarize key methodologic details. Data source: Medicare Fee-For-Service claims data from 2007 through 2017 were used. Medicare Part A (hospitalizations), B (medical services), and D (prescription medications) claims are available for research purposes through the Centers for Medicare and Medicaid Services. A signed data use agreement with the CMS was available and the Brigham and Women's Hospital's Institutional Review Board approved this study. Study cohort: A new user, active comparator, observational cohort study design comparing methotrexate to hydroxychloroquine was employed. The patients were required to have continuous enrollment in Medicare parts A, B, and D during the baseline period of 365 days before initiation date of methotrexate or hydroxychloroquine, which was defined as the cohort entry date. Patients were required to have ≥1 diagnosis codes of rheumatoid arthritis during the baseline period but no prior use of any disease modifying antirheumatic treatments. Patients with existing diagnosis of Alzheimer's disease and related dementia (ADRD) any time prior to and including cohort entry date were excluded to focus on incident events. Patients with nursing home admission in 365 days prior to and including cohort entry date also were excluded as medication records for short nursing home stays are unavailable in Medicare claims. Outcome measurement: The endpoint of ADRD was identified based on diagnosis codes, recorded on 1 inpatient claim or 2 outpatient claims, of Alzheimer's disease, vascular dementia, senile, presenile, or unspecified dementia, or dementia in other diseases classified elsewhere. […] Alternative analytic approaches: To accommodate various uncertainties involved in pharmacoepidemiologic investigations focused on ADRD risk, the following alternative analyses were employed. Analysis 1—‘As-treated’ follow-up approach: In this approach, the follow-up started on the day following the cohort entry date and continued until treatment discontinuation or switch (to comparator treatment), insurance disenrollment, death, or administrative endpoint (December 2017). A 90-day ‘grace period’ after the end of the expected days-supply of the most recently filled prescription was considered to define the treatment discontinuation date to accommodate for suboptimal adherence during treatment periods. […] This follow-up approach addresses concerns related to informative censoring if patients discontinue or if physicians de-prescribe the treatments under consideration because of memory problems associated with ADRD, but the diagnosis is not recorded in the electronic healthcare records until after the end of follow-up due to treatment-related censoring. Analysis 3—incorporating a 6-month ‘symptoms to diagnosis’ period: In this approach, an outcome date was assigned that was 6 months before the first recorded ADRD date and excluded last 6 months of follow-up for those who are censored without an event to account for the possibility that ADRD symptoms likely appear some time before a formal diagnosis is recorded in insurance records, which leads to misclassification of ADRD onset. […]

[2] = in vivo; cited from earlier work
[3] = molecular target: STAT3 (Mus musculus, UniProt P42227); assay: Western blot of total and phosphorylated STAT3 in mouse embryonic cortical neurons; type: cell-based; set-up: hippocampal homogenate samples across four groups; from tissue; host or cells: acute hippocampal slices from WT and APP/PS1 (APPSwe/PS1dE9) mice; conditions: 50 μM, 48 hours
Procedure: For primary cultures of embryonic cortical neurons, timed-pregnant mice were obtained from The Jackson Laboratory. Cultures were prepared from embryonic day (E) 14.5 cerebral tissues as described (Zhao et al., Cell Death Differ 2019, 26:1600-1614). Pregnant mice were killed by fast cervical dislocation, embryos and embryo brains were removed, and the cerebral hemisphere was extracted in sterile Hank's balanced saline solution (HBSS). Brain tissues were incubated in 0.25% trypsin-EDTA for 30 min at 37° C.and then transferred to DMEM containing 10% fetal bovine serum (DMEM+). The tissues were transferred to neurobasal (NB) medium containing B27 supplements, 2 mM L-glutamine, antibiotics and antimycotics (Gibco), and 1 mM HEPES and dissociated by trituration using a fire-polished Pasteur pipet. The dissociated cells were seeded into polyethyleneimine-coated plastic culture dishes at a density of 60,000 cells/cm^2 and cultured in the same B27-containing NB medium. Experiments were started 5 days later.
HCQ treatment: Treatment with hydroxychloroquine Sulfate (Selleckchem, Catalog No.S4430) was performed at 50 μM concentration. […]
(§1) Statistical analysis: Digitized images were obtained, processed, and quantified with ImageLab version 6.1 (BioRad Laboratories).

[4] = molecular target: T1, STAT3 (Homo sapiens, UniProt P40763); assay: Western blot of total and phosphorylated STAT3 in human cell lines; type: cell-based; conditions: 50 μM; for p-STAT3 (Tyr705 and Ser727) / total STAT3: 48 hours
T1 construct: endogenous in cells; host or cells: HMC3 (ATCC CRL-3304), 1321N1 (Sigma-Aldrich), SK-N-BE(2)-M17 (ATCC CRL-2267)
Procedure: Cell and neuron cultures: Immortalized human microglia HMC3 cells (ATCC CRL-3304) and astrocytoma 1321N1 cells (Sigma-Aldrich; derived from human brain astrocytoma; Macintyre et al., 1972) were cultured in Eagle's minimum essential medium (EMEM) supplemented with 10% fetal bovine serum (FBS, Gibco) and 1% antibiotics and antimycotics (Gibco). Neuroblastoma SK-N-BE(2)-M17 (M17) (ATCC CRL-2267) cells were cultured in a 1:1 mixture of EMEM and F12 media, supplemented with 10% FBS plus 1% antibiotics and antimycotics.
HCQ treatment: Treatment with hydroxychloroquine Sulfate (Selleckchem, Catalog No.S4430) was performed at 50 μM concentration.
Western blot analysis: Protein extracts were obtained by lysing cells with a denaturing buffer containing 2% sodium dodecyl sulfate (SDS) (Sigma-Aldrich) in 50 mM HEPES. After boiling and sonication, whole-cell protein extracts were size-fractionated through polyacrylamide gels and transferred to nitrocellulose membranes (Bio-Rad). Membranes were blocked with 5% non-fat dry milk and immunoblotted. Primary antibodies were employed that recognized total STAT3 (124H6) (Cell Signaling, 9139T), phosphorylated STAT3 (Tyr705) (D3A7) XP® (Cell Signaling, 9145S), and phosphorylated STAT3 (Ser727) (Cell Signaling, 94994S).
as §1

[5] = albino rats; cited from earlier work

T1 sequence (P40763 whole entry): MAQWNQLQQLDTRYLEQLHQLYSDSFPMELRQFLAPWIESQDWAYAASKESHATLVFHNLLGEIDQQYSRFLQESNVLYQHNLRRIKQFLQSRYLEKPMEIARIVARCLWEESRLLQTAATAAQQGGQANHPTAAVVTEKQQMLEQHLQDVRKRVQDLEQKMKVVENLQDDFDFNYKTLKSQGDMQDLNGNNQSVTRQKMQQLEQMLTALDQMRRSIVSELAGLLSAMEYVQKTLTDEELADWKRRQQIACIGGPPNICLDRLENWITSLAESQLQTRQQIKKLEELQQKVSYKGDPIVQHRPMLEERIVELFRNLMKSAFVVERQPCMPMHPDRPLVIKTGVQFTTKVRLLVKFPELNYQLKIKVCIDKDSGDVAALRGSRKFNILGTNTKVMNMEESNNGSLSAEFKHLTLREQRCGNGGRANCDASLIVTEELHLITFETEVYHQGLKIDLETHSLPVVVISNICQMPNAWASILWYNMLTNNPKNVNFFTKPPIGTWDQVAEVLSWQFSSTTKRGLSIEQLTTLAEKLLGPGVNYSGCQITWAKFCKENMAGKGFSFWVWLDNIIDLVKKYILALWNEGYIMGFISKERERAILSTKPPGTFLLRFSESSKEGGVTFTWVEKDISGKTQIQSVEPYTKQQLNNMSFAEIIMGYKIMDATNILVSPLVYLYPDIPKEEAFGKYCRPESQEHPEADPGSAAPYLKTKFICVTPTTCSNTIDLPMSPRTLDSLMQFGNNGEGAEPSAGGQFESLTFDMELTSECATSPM
Chain of STAT3 (Mus musculus, UniProt P42227) (P42227 whole entry): as the sequence (P40763 whole entry) above, with E760D counted along it

p-STAT3 (Tyr705 and Ser727) [3]: reduced | total STAT3 [3]: without alteration | p-STAT3 (Tyr705 and Ser727) ([4]; 1321N1 cells): reduced | total STAT3 ([4]; 1321N1 cells): without alteration | p-STAT3 (Tyr705 and Ser727) ([4]; HMC3 cells): reduced | total STAT3 ([4]; HMC3 cells): without alteration | phosphorylated STAT3 and total STAT3 ([4]; SK-N-BE(2)-M17 cells): non-significant
Compound: CCN(CCO)CCCC(C)Nc1ccnc2cc(Cl)ccc12 (stereo not drawn) [HCQ, hydroxychloroquine]
lower risk of ADRD ([1]; Analysis 1, as-treated, vs MTX initiators): 8% | lower risk of ADRD ([1]; Analysis 2, as-started, 6-month induction period): 13% | lower risk of ADRD ([1]; Analysis 3, 6-month symptom to claims period): 16% | cumulative incidence of ADRD ([1]; after approximately 2 years of treatment, compared to MTX, all four analyses): lower cumulative incidence | lowering of incident AD ([1]; relative to methotrexate, across analyses): 8-16% | serious side effects of retinopathy and cardiac toxicity [2]: relatively rare | cell viability [4]: did not have adverse effects on cell viability | Kp brain/plasma [5]: 4-31

— patent publication US20240269128A1, “COMPOUNDS FOR TREATING OR PREVENTING ALZHEIMER'S DISEASE” (THE UNITED STATES OF AMERICA, as represented by the …, priority 2021, published 2024)
